Experimental data: article PMC8200211, “PTD4 Peptide Increases Neural Viability in an In Vitro Model of Acute Ischemic Stroke” (International Journal of Molecular Sciences, 2021)
“Also recorded” adds a separate entry of the source. Read-outs that look alike come from different tables or passages of the source. Where no end group is shown, it is not given here.

Assays:
[1] = tested on: primary neural cortical cultures; test: Peptide neurotoxicity, CellTiter-Blue viability assay; format: cell-based, Wistar rat; settings: for Neural viability, relative to non-insulted control: 100 µM; for Concentration at which neurotoxic impact was visible: tested 1, 10, 50, 100, 200 µM
Experimental: (§1) All animal experiments were conducted in accord with the permission of the Local Bioethics Committee. Primary cortical neurons were isolated from Wistar rat embryos at embryonic day 18.5 (E18.5). Pregnant females were euthanized in a CO2 chamber, and the embryos were immediately removed in order to microdissect the brains. The cortices were excised, transferred to Hank’s Balanced Salt Solution (HBSS, Gibco, Waltham, MA, USA), supplemented with a 1% penicillin/streptomycin mixture (Gibco, Waltham, MA, USA) and washed. Afterwards, the tissue was trypsinized (2.5% trypsin, Gibco, Waltham, MA, USA) for 10 min at 37 °C, and homogenized gently by re-suspension with a sterile tip of a pipette. The cell suspension was centrifuged in 300 rcf for 4 min and re-suspended in Neurobasal-A medium (Gibco, Waltham, MA, USA) supplemented to final concentration with 1 mM sodium pyruvate, 12.5 mM glucose 2% B27 (Gibco, Waltham, MA, USA), […] L-glutamine, […], a 1% penicillin/streptomycin mixture, and seeded in a 24-well plate poly-D-lysine (PDL)-coated (BioCoat, Corning, Tewksburry, MA, USA) in the number of 200,000 cells per well. The neural cultures were incubated in a CO2 chamber (5%, 95% air balance, 98% humidity, 37 °C) for 14 days and were used on culture day in vitro (DIV) 14–15.
The influence of all peptides on neural viability was assessed by exposing the cells to different peptide concentrations (1, 10, 50, 100, 200 µM) for 20 h at 37 °C in a 5% CO2 chamber. The assessments were performed in 24-well PDL-coated plates (BioCoat, Corning, Tewksbury, MA, USA) with a working volume of 500 µL/well. The respective peptide solutions were prepared in culture medium so that in all wells only 50 µL of the medium was exchanged, including control (untreated) samples.
Neural viability was assessed in CellTiter-Blue® (CTB) assay (Promega, cat #G8080, Madison, WI, USA) after 20 h long incubation of cells in standard Neurobasal medium after stressful conditions. The test was performed in 24-well PDL-coated plates (BioCoat, Corning, Tewksbury, MA, USA) and according to the manufacturer’s guideline, which included adding the solution to the neural culture well, followed by incubation for 1–4 h at 37 °C (5% CO2). The fluorescence intensity of the CTB reagent was measured spectrofluorimetrically (560ex/590em) and was proportional to the number of viable cells. The results were calculated as a percentage taking the respective control (non-insulted) measurement as 100% viability.
Each cell viability experiment was performed in at least three biologically independent experiments, in each of which neural cultures were obtained from one female rat. Each female originated from different breeding parents. In one experiment, the viability assessments for each condition were conducted in three plates, with three–four replicate wells per plate. For every plate, relative viability for one condition were averaged, and then used to calculate averaged results for all plates in an experiment. The final values were calculated from averaged results of independent experiments and shown as a mean ± standard deviation (SD), n = 3. The data were analyzed by a two-way ANOVA test with p-value < 0.05 values considered statistically significant.

cell membrane = settings: previous reports; cited from earlier work
From the text: Comparing the native Tat(49–57)-NH2 and PTD4, the latter appeared as a better-performing neuroprotectant in the AIS model. Mechanistically, this may indicate a possible correlation between neuroprotection and the structural and acid-base peptide properties.

[2] = tested on: pre-insulted rat primary neural culture; test: Pro-viable effect of peptides in a multifactorial in vitro model of acute ischemic stroke, CellTiter-Blue; format: cell-based, Wistar rat; settings: 1 h, then 50 µM peptide 20 h; for Neuroprotection against excitotoxicity: 400 µM glutamic acid, 800 µM NMDA or 800 µM kainic acid
Experimental: as §1, with “14–15. […]” for “14–15.”
Neural viability was assessed in CellTiter-Blue® (CTB) assay (Promega, cat #G8080, Madison, WI, USA) after 20 h long incubation of cells in standard Neurobasal medium after stressful conditions. […] The fluorescence intensity of the CTB reagent was measured spectrofluorimetrically (560ex/590em) and was proportional to the number of viable cells. The results were calculated as a percentage taking the respective control (non-insulted) measurement as 100% viability. […]

## CC[C@H](C)[C@H](NC(=O)[C@H](CCCCN)NC(=O)[C@H](CCCCN)NC(=O)[C@H](C)NC(=O)[C@H](CC(C)C)NC(=O)[C@H](C)NC(=O)[C@H](C)NC(=O)[C@H](CC(C)C)NC(=O)[C@H](C)NC(=O)[C@H](CCCCN)NC(=O)[C@H](CC(C)C)NC(=O)[C@H](CC(N)=O)NC(=O)[C@@H](NC(=O)[C@H](CCCCN)NC(=O)CNC(=O)[C@H](CC(C)C)NC(=O)[C@H](CC(C)C)NC(=O)[C@H](Cc1ccc(O)cc1)NC(=O)CNC(=O)[C@H](C)N)[C@@H](C)CC)C(=O)N[C@@H](CC(C)C)C(N)=O [TP10, reference compound]
[1]
  Neural viability, relative to non-insulted control: < 10%
[1]; 1-200 µM, 20 h exposure, CTB assay
  Neurotoxicity ranking among the peptides tested: highest toxicity
[1]; 20 h exposure, CTB assay
  Concentration at which neurotoxic impact was visible: 1 µM

## C#CC(=O)N[C@@H](CCCNC(=N)N)C(=O)N[C@@H](CCCCN)C(=O)N[C@@H](CCCCN)C(=O)N[C@@H](CCCNC(=N)N)C(=O)N[C@@H](CCCNC(=N)N)C(=O)N[C@@H](CCC(N)=O)C(=O)N[C@@H](CCCNC(=N)N)C(=O)N[C@@H](CCCNC(=N)N)C(=O)N[C@@H](CCCNC(=N)N)C(N)=O [Prop-Tat]
[1]
  Neural viability, relative to non-insulted control: < 10%
[1]; 20 h exposure, CTB assay
  Concentration at which neurotoxic impact was visible: 1 µM

## YARAAARQARA-NH2 [PTD4, less basic Ala-substituted analogue of Tat(49–57)-NH2, cell-penetrating peptide]
Cell membrane
  Efficiency of peptide translocation across the cell membrane compared to Tat(49–57)-NH2: almost thirty times higher
[2]
  Neuroprotection against excitotoxicity: significant neuroprotection
[2]; acidosis pH 6.35, 200 mM sodium lactate
  Pro-viable activity against acidosis: displayed pro-viable activity
[1]
  Highest non-toxic concentration: 50 µM
  Neurotoxicity at higher concentrations: significantly neurotoxic
  Neurotoxicity at low concentrations: negligible
  Neurotoxicity ranking among the peptides tested: lowest neurotoxicity

## RKKR^52RQRRR^57-amide [Tat(49–57)-NH2, reference compound]
[2]
  Neuroprotection against excitotoxicity: significant neuroprotection
[1]; >100 µM, 20 h exposure, CTB assay, n = 3
  Neurotoxicity at higher concentrations: most toxic impact; also recorded: significantly neurotoxic
